Patent US10351546B2, “Pyridin-3-yl acetic acid derivatives as inhibitors of human immunodeficiency virus replication” (priority 2015, dated 2019)

System: NL-RLuc virus
Assay: Inhibition of HIV replication (NL-RLuc luciferase reporter virus in MT-2 cells)
Assay type: cell-based
Details: Human immunodeficiency virus 1, MT2, 120 h, read-out: Activity
Summary of the method: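 MT-2 cells were infected with NL4-3-derived virus carrying Renilla luciferase in place of part of nef, in RPMI/10% FBS, with serial compound dilutions. Luciferase read after 5 days of multicycle replication. EC50 from the median effect equation, at least 2 experiments.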

`Cc1cc(F)ccc1CN1CCc2cc(-c3c(Cn4cnnc4C)nc(C)c([C@H](OC(C)(C)C)C(=O)O)c3N3CCC(C)(C)CC3)ccc2C1` [Example 146, (S)-2-(tert-butoxy)-2-(4-(4,4-dimethylpiperidin-1-yl)-5-(2-(4-fluoro-2-methylbenzyl)-1,2,3,4-tetrahydroisoquinolin-6-yl)-2-methyl-6-((3-methyl-4H-1,2,4-triazol-4-yl)methyl)pyridin-3-yl)acetic acid] was tested. Which EC50 did it give?
Its EC50 is under 0.1 µM.

For `Cc1cc(F)ccc1CN1CCc2cc(-c3c(N)nc(C)c([C@H](OC(C)(C)C)C(=O)O)c3N3CCC(C)(C)CC3)ccc2C1` [Example 147, (S)-2-(6-Amino-4-(4,4-dimethylpiperidin-1-yl)-5-(2-(4-fluoro-2-methylbenzyl)-1,2,3,4-tetrahydroisoquinolin-6-yl)-2-methylpyridin-3-yl)-2-(tert-butoxy)acetic acid], which EC50 is on record?
Its EC50 is under 0.1 µM.

How did the EC50 turn out when `Cc1cc(N2CCc3cc(-c4c(N)nc(C)c([C@H](OC(C)(C)C)C(=O)O)c4N4CCC(C)(C)CC4)ccc3C2)ncn1` [Example 148, (S)-2-(6-Amino-4-(4,4-dimethylpiperidin-1-yl)-2-methyl-5-(2-(6-methylpyrimidin-4-yl)-1,2,3,4-tetrahydroisoquinolin-6-yl)pyridin-3-yl)-2-(tert-butoxy)acetic acid] was run?
The EC50 was under 0.1 µM.

`Cc1nc(N)c(-c2ccc3c(c2)CCN(c2ncnc4c2cnn4C)C3)c(N2CCC(C)(C)CC2)c1[C@H](OC(C)(C)C)C(=O)O` [Example 149, (S)-2-(6-Amino-4-(4,4-dimethylpiperidin-1-yl)-2-methyl-5-(2-(1-methyl-1H-pyrazolo[3,4-d]pyrimidin-4-yl)-1,2,3,4-tetrahydroisoquinolin-6-yl)pyridin-3-yl)-2-(tert-butoxy)acetic acid] was tested. Which EC50 did it give?
The EC50 was under 0.1 µM.

For `Cc1cc(F)ccc1CN1CCc2cc(-c3c(COCC4COC4)nc(C)c([C@H](OC(C)(C)C)C(=O)O)c3N3CCC(C)(C)CC3)ccc2C1` [Example 154, (S)-2-(tert-Butoxy)-2-(4-(4,4-dimethylpiperidin-1-yl)-5-(2-(4-fluoro-2-methylbenzyl)-1,2,3,4-tetrahydroisoquinolin-6-yl)-2-methyl-6-((oxetan-3-ylmethoxy)methyl)pyridin-3-yl)acetic acid], which EC50 is on record?
Its EC50 is under 0.1 µM.

How did the EC50 turn out when `Cc1cc(F)ccc1CN1CCc2cc(-c3c(COC4CCOCC4)nc(C)c([C@H](OC(C)(C)C)C(=O)O)c3N3CCC(C)(C)CC3)ccc2C1` [Example 155, (S)-2-(tert-Butoxy)-2-(4-(4,4-dimethylpiperidin-1-yl)-5-(2-(4-fluoro-2-methylbenzyl)-1,2,3,4-tetrahydroisoquinolin-6-yl)-2-methyl-6-(((tetrahydro-2H-pyran-4-yl)oxy)methyl)pyridin-3-yl)acetic acid] was run?
The EC50 was under 0.1 µM.

For `CCOCc1nc(C)c([C@H](OC(C)(C)C)C(=O)O)c(N2CCC(C)(C)CC2)c1-c1ccc2c(c1)CCN(Cc1ccc(F)cc1C)C2` [Example 156, (S)-2-(tert-Butoxy)-2-(4-(4,4-dimethylpiperidin-1-yl)-6-(ethoxymethyl)-5-(2-(4-fluoro-2-methylbenzyl)-1,2,3,4-tetrahydroisoquinolin-6-yl)-2-methylpyridin-3-yl)acetic acid], which EC50 is on record?
Its EC50 is under 0.1 µM.

How did the EC50 turn out when `COCc1nc(C)c([C@H](OC(C)(C)C)C(=O)O)c(N2CCC(C)(C)CC2)c1-c1ccc2c(c1)CCN(Cc1ccc(F)cc1C)C2` [Example 157, (S)-2-(tert-Butoxy)-2-(4-(4,4-dimethylpiperidin-1-yl)-5-(2-(4-fluoro-2-methylbenzyl)-1,2,3,4-tetrahydroisoquinolin-6-yl)-6-(methoxymethyl)-2-methylpyridin-3-yl)acetic acid] was run?
The EC50 was under 0.1 µM.

For `Cc1cc(F)ccc1CN1CCc2cc(-c3c(COC(C)C)nc(C)c([C@H](OC(C)(C)C)C(=O)O)c3N3CCC(C)(C)CC3)ccc2C1` [Example 158, (S)-2-(tert-Butoxy)-2-(4-(4,4-dimethylpiperidin-1-yl)-5-(2-(4-fluoro-2-methylbenzyl)-1,2,3,4-tetrahydroisoquinolin-6-yl)-6-(isopropoxymethyl)-2-methylpyridin-3-yl)acetic acid], which EC50 is on record?
The EC50 was under 0.1 µM.

For `Cc1cc(F)ccc1CN1CCc2cc(-c3c(COCC4CCOCC4)nc(C)c([C@H](OC(C)(C)C)C(=O)O)c3N3CCC(C)(C)CC3)ccc2C1` [Example 159, (S)-2-(tert-Butoxy)-2-(4-(4,4-dimethylpiperidin-1-yl)-5-(2-(4-fluoro-2-methylbenzyl)-1,2,3,4-tetrahydroisoquinolin-6-yl)-2-methyl-6-(((tetrahydro-2H-pyran-4-yl)methoxy)methyl)pyridin-3-yl)acetic acid], which EC50 is on record?
The EC50 was under 0.1 µM.

With `CCOCCOCc1nc(C)c([C@H](OC(C)(C)C)C(=O)O)c(N2CCC(C)(C)CC2)c1-c1ccc2c(c1)CCN(Cc1ccc(F)cc1C)C2` [Example 160, (S)-2-(tert-Butoxy)-2-(4-(4,4-dimethylpiperidin-1-yl)-6-((2-ethoxyethoxy)methyl)-5-(2-(4-fluoro-2-methylbenzyl)-1,2,3,4-tetrahydroisoquinolin-6-yl)-2-methylpyridin-3-yl)acetic acid] as the compound, how does the EC50 read?
The EC50 was under 0.1 µM.

With `C#Cc1nc(C)c([C@H](OC(C)(C)C)C(=O)O)c(N2CCC(C)(C)CC2)c1-c1ccc(OCCc2ccc(F)cc2)cc1` [Example 161, (S)-2-(tert-Butoxy)-2-(4-(4,4-dimethylpiperidin-1-yl)-6-ethynyl-5-(4-(4-fluorophenethoxy)phenyl)-2-methylpyridin-3-yl)acetic acid] as the compound, how does the EC50 read?
Its EC50 is under 0.1 µM.

How did the EC50 turn out when `Cc1nc(C#N)c(-c2ccc(OCCc3ccc(F)cc3)cc2)c(N2CCC(C)(C)CC2)c1[C@H](OC(C)(C)C)C(=O)O` [Example 162, (S)-2-(tert-Butoxy)-2-(6-cyano-4-(4,4-dimethylpiperidin-1-yl)-5-(4-(4-fluorophenethoxy)phenyl)-2-methylpyridin-3-yl)acetic acid] was run?
Its EC50 is under 0.1 µM.

`CC#Cc1nc(C)c([C@H](OC(C)(C)C)C(=O)O)c(N2CCC(C)(C)CC2)c1-c1ccc(OCCc2ccc(F)cc2)cc1` [Example 163, (S)-2-(tert-butoxy)-2-(4-(4,4-dimethylpiperidin-1-yl)-5-(4-(4-fluorophenethoxy)phenyl)-2-methyl-6-(prop-1-yn-1-yl)pyridin-3-yl)acetic acid] was tested. Which EC50 did it give?
The EC50 was under 0.1 µM.

For `Cc1cccc(Cl)c1CN1CCc2cc(-c3c(N)nc(C)c([C@H](OC(C)(C)C)C(=O)O)c3N3CCC(C)(C)CC3)ccc2C1` [Example 164, (S)-2-(6-Amino-5-(2-(2-chloro-6-methylbenzyl)-1,2,3,4-tetrahydroisoquinolin-6-yl)-4-(4,4-dimethylpiperidin-1-yl)-2-methylpyridin-3-yl)-2-(tert-butoxy)acetic acid], which EC50 is on record?
Its EC50 is under 0.1 µM.

For `Cc1cccc(Cl)c1CN1CCc2cc(-c3c(CO)nc(C)c([C@H](OC(C)(C)C)C(=O)O)c3N3CCC(C)(C)CC3)ccc2C1` [Example 165, (S)-2-(tert-butoxy)-2-(5-(2-(2-chloro-6-methylbenzyl)-1,2,3,4-tetrahydroisoquinolin-6-yl)-4-(4,4-dimethylpiperidin-1-yl)-6-(hydroxymethyl)-2-methylpyridin-3-yl)acetic acid], which EC50 is on record?
Its EC50 is under 0.1 µM.

With `Cc1cccc(Cl)c1CN1CCc2cc(-c3c(C#N)nc(C)c([C@H](OC(C)(C)C)C(=O)O)c3N3CCC(C)(C)CC3)ccc2C1` [Example 166, (S)-2-(tert-butoxy)-2-(5-(2-(2-chloro-6-methylbenzyl)-1,2,3,4-tetrahydroisoquinolin-6-yl)-6-cyano-4-(4,4-dimethylpiperidin-1-yl)-2-methylpyridin-3-yl)acetic acid] as the compound, how does the EC50 read?
Its EC50 is under 0.1 µM.

For `Cc1nc(N)c(-c2ccc3c(c2)CCN(c2ncnc4c2oc2ccccc24)C3)c(N2CCC(C)(C)CC2)c1[C@H](OC(C)(C)C)C(=O)O` [Example 167, (S)-2-(6-amino-5-(2-(benzofuro[3,2-d]pyrimidin-4-yl)-1,2,3,4-tetrahydroisoquinolin-6-yl)-4-(4,4-dimethylpiperidin-1-yl)-2-methylpyridin-3-yl)-2-(tert-butoxy)acetic acid], which EC50 is on record?
Its EC50 is under 0.1 µM.

How did the EC50 turn out when `Cc1nc(CO)c(-c2ccc3c(c2)CCN(c2ncnc4c2oc2ccccc24)C3)c(N2CCC(C)(C)CC2)c1[C@H](OC(C)(C)C)C(=O)O` [Example 168, (S)-2-(5-(2-(Benzofuro[3,2-d]pyrimidin-4-yl)-1,2,3,4-tetrahydroisoquinolin-6-yl)-4-(4,4-dimethylpiperidin-1-yl)-6-(hydroxymethyl)-2-methylpyridin-3-yl)-2-(tert-butoxy)acetic acid] was run?
The EC50 was under 0.1 µM.

How did the EC50 turn out when `Cc1nc(-c2cn(C)nn2)c(-c2ccc(OCCc3ccc(F)cc3)cc2)c(N2CCC(C)(C)CC2)c1[C@H](OC(C)(C)C)C(=O)O` [Example 169, (S)-2-(tert-butoxy)-2-(4-(4,4-dimethylpiperidin-1-yl)-5-(4-(4-fluorophenethoxy)phenyl)-2-methyl-6-(1-methyl-1H-1,2,3-triazol-4-yl)pyridin-3-yl)acetic acid] was run?
The EC50 was under 0.1 µM.

With `Cc1nc(Cc2ccc(F)cc2)c(-c2ccc(OCCc3ccc(F)cc3)cc2)c(N2CCC(C)(C)CC2)c1[C@H](OC(C)(C)C)C(=O)O` [Example 170, (S)-2-(tert-Butoxy)-2-(4-(4,4-dimethylpiperidin-1-yl)-6-(4-fluorobenzyl)-5-(4-(4-fluorophenethoxy)phenyl)-2-methylpyridin-3-yl)acetic acid] as the compound, how does the EC50 read?
Its EC50 is under 0.1 µM.

`Cc1nc(CC2=CCCCC2)c(-c2ccc(OCCc3ccc(F)cc3)cc2)c(N2CCC(C)(C)CC2)c1[C@H](OC(C)(C)C)C(=O)O` [Example 171, (S)-2-(tert-Butoxy)-2-(6-(cyclohex-1-en-1-ylmethyl)-4-(4,4-dimethylpiperidin-1-yl)-5-(4-(4-fluorophenethoxy)phenyl)-2-methylpyridin-3-yl)acetic acid] was tested. Which EC50 did it give?
Its EC50 is under 0.1 µM.

Which EC50 does the source give for `Cc1nc(CC2CCCCC2)c(-c2ccc(OCCc3ccc(F)cc3)cc2)c(N2CCC(C)(C)CC2)c1[C@H](OC(C)(C)C)C(=O)O` [Example 172, (S)-2-(tert-Butoxy)-2-(6-(cyclohexylmethyl)-4-(4,4-dimethylpiperidin-1-yl)-5-(4-(4-fluorophenethoxy)phenyl)-2-methylpyridin-3-yl)acetic acid] here?
The EC50 was under 0.1 µM.

Same assay, conditions: Human immunodeficiency virus 1, MT2, 120 h, read-out: EC50 μM

With `Cc1cc(F)ccc1CN1CCc2cc(-c3c(COC4CCOCC4)nc(C)c([C@H](OC(C)(C)C)C(=O)O)c3N3CCC(C)(C)CC3)ccc2C1` [Example 155, (S)-2-(tert-Butoxy)-2-(4-(4,4-dimethylpiperidin-1-yl)-5-(2-(4-fluoro-2-methylbenzyl)-1,2,3,4-tetrahydroisoquinolin-6-yl)-2-methyl-6-(((tetrahydro-2H-pyran-4-yl)oxy)methyl)pyridin-3-yl)acetic acid] as the compound, how does the EC50 read?
The EC50 was 0.001 µM.

How did the EC50 turn out when `Cc1nc(C#N)c(-c2ccc(OCCc3ccc(F)cc3)cc2)c(N2CCC(C)(C)CC2)c1[C@H](OC(C)(C)C)C(=O)O` [Example 162, (S)-2-(tert-Butoxy)-2-(6-cyano-4-(4,4-dimethylpiperidin-1-yl)-5-(4-(4-fluorophenethoxy)phenyl)-2-methylpyridin-3-yl)acetic acid] was run?
The EC50 was 0.008 µM.

`Cc1nc(CO)c(-c2ccc3c(c2)CCN(c2ncnc4c2oc2ccccc24)C3)c(N2CCC(C)(C)CC2)c1[C@H](OC(C)(C)C)C(=O)O` [Example 168, (S)-2-(5-(2-(Benzofuro[3,2-d]pyrimidin-4-yl)-1,2,3,4-tetrahydroisoquinolin-6-yl)-4-(4,4-dimethylpiperidin-1-yl)-6-(hydroxymethyl)-2-methylpyridin-3-yl)-2-(tert-butoxy)acetic acid] was tested. Which EC50 did it give?
Its EC50 is 0.001 µM.
